According to PubChem BioAssay (NCI):
Several values for one entry are separate records, joined by “and”; a condition that tells them apart may be missing. Identical values can stand only once.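 Five compound concentrations were applied to cells in 96-well plates for 48 hours; endpoints were derived by simple linear interpolation of the resulting dose-response curve. Abbreviation: GI50, concentration required for 50% inhibition of growth. At the TGI there is no net growth.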

Assays:
Test in all cases: DTP human tumour cell line panel, 48 h
COLO 205 colon = test system: COLO 205 colon
M14 melanoma = test system: M14 melanoma
HCT-116 colon = test system: HCT-116 colon
SK-MEL-5 melanoma = test system: SK-MEL-5 melanoma
T-47D breast = test system: T-47D breast
SK-MEL-28 melanoma = test system: SK-MEL-28 melanoma
LOX IMVI melanoma = test system: LOX IMVI melanoma
HL-60(TB) leukemia = test system: HL-60(TB) leukemia
U251 CNS = test system: U251 CNS
NCI-H23 lung = test system: NCI-H23 lung

Structure (SMILES) | GI50 (COLO 205 colon) [µM] | TGI (COLO 205 colon) | GI50 (M14 melanoma) [µM] | TGI (M14 melanoma) [µM] | GI50 (HCT-116 colon) [µM] | TGI (HCT-116 colon) [µM] | GI50 (SK-MEL-5 melanoma) [µM] | TGI (SK-MEL-5 melanoma) [µM] | GI50 (T-47D breast) [µM] | TGI (T-47D breast) [µM] | GI50 (SK-MEL-28 melanoma) | TGI (SK-MEL-28 melanoma) | GI50 (LOX IMVI melanoma) [µM] | TGI (LOX IMVI melanoma) [µM] | GI50 (HL-60(TB) leukemia) [µM] | TGI (HL-60(TB) leukemia) [µM] | GI50 (U251 CNS) [µM] | TGI (U251 CNS) [µM] | GI50 (NCI-H23 lung) [µM] | TGI (NCI-H23 lung)
Nc1nc(/C=C\c2ccccc2)nc(N2CCN(c3ccccc3)CC2)n1 | 16.4 | 35.8 µM | 30.2 | > 100 | 13.5 | 31.7 | 21.1 | 45 | 11.6 | 41.9 | 30.9 µM | 79.6 µM | 19 | 40.6 | 25.4 | 66.3 | 24.3 | 69.2 | – | –
CCCCCCCCCCCCOC1C(CNC(=O)C2OC3OC(C)(C)OC3C2NC(=O)CN2CCN(c3ccc(OC)cc3)CC2)OC2OC(C)(C)OC21 (stereo unspecified) | 2.26 | 4.82 µM | 4.73 | 18.9 | 3.26 | 18.5 | 4.39 | 16.1 | 4.33 | 23.4 | 5.86 µM | 23.3 µM | 3.71 | 12.3 | 2.13 | 4.44 | 4.74 | 15.8 | 9.68 | 32 µM
CC(=O)NNc1nc(C)c(C(/C=C/c2ccccc2O)=N/N=C(N)N)s1 | – | > 100 µM | – | > 100 | – | > 100 | – | > 100 | – | > 100 | – | > 100 µM | – | > 100 | – | > 100 | – | > 100 | – | > 100 µM
Cc1cc(-c2cc(O)ccc2Cl)cc2nnc(Nc3ccc(OCCN4CCCC4)cc3)nc12 | 2.08 | 4.29 µM | 0.326 | 1.19 | 0.18 | 0.341 | 1.75 | 3.37 | 1.66 | 3.95 | 0.292 µM | 0.843 µM | 1.57 | 3.25 | 0.305 | 0.627 | 0.194 | 0.372 | 0.812 | 2.48 µM
C#CCN(c1ccc(C(=O)N[C@@H](CCC(=O)N[C@H](CCC(=O)O)C(=O)O)C(=O)O)cc1)C1CCc2cc3nc(CO)[nH]c(=O)c3cc21 (stereo partly specified) | 13.8 | > 100 µM | 7.97 | > 100 | 7.53 | > 100 | 10 | > 100 | > 67 | > 100 | > 100 µM | > 100 µM | 5.12 | > 100 | > 58.5 | > 100 | > 78.4 | > 100 | 49.1 | > 100 µM
CC[C@@H](C)/C=C(C)/C=C/C(=O)c1c(O)c(-c2ccc(O)cc2)cn(O)c1=O | 7.19 | 20.6 µM | 0.284 | 13.2 | 0.395 | 13 | 0.201 | 0.562 | 0.609 | 28.5 | 0.674 µM | 19.2 µM | 0.288 | 7.64 | 0.27 | 13.5 | 0.374 | 11.2 | 0.562 | 9.93 µM
COc1ccc(/C=C2/SC(Nc3nc(-c4nc(NC5=NC(=O)/C(=C\c6ccc(OC)cc6)S5)sc4C)c(C)s3)=NC2=O)cc1 | 2.42 | > 50 µM | 0.499 | 2.36 | 1.2 | 9.78 | 0.282 | 3.93 | 7.52 | > 50 | – | – | 0.935 | 9.27 | 0.397 | > 21.9 | 1.3 | 7.32 | 0.944 | 4.97 µM
O=C1C=CC(=O)c2c(O)c3c(c(O)c21)C[C@H](O)[C@H](O)[C@@H]3O | – | 1.12 µM | – | 3.86 | – | 1.73 | – | 3.18 | – | 4 | – | 5.38 µM | – | 4.08 | – | 2.9 | – | 16.3 | – | 4.67 µM
CCCCCC/C=C\CCCCCCCCCC1=C(CN2CCN(C)CC2)C(=O)C=C(OC)C1=O | – | 3.37 µM | – | 7.73 | – | 4.41 | – | 19.3 | – | 4.81 | – | 28.2 µM | – | 9.79 | – | 2.97 | – | 15 | – | 15.4 µM
COc1cccc(C2SC(N)=Nc3c2c(C)nn3C(=O)Cc2ccccc2)c1 (stereo unspecified) | – | > 100 µM | – | > 100 | – | > 100 | – | > 100 | – | > 100 | – | > 100 µM | – | > 100 | – | > 100 | – | – | – | > 100 µM
Oc1c(Cl)cc(Cl)c2ccc(Cn3cc(-c4ccc(C(F)(F)F)cc4)nn3)nc12 | 1.39 | 3.14 µM | 1.93 | 5.26 | 0.692 | 2.57 | 3.07 | 11.4 | 1.88 | 5.59 | 1.78 µM | 3.76 µM | 0.299 | 1.11 | 0.685 | 3.65 | 4.43 | 17.2 | 2.04 | 4.76 µM
Cc1cc(C)c(-c2c(N)cc(Br)cc2Br)c(N)c1 | 4.93 | 15.6 µM | 4.4 | 15.7 | 4.35 | 15.6 | 3.82 | 13.9 | 5.71 | 19.3 | 6.25 µM | 21 µM | 5.21 | 18 | – | – | 4.73 | 17 | 4.89 | 18 µM
CC(C)CCCCCCCCCCCCC(=O)NCC(=O)NC1C(O)C(O)C(Nc2ncnc3nc[nH]c23)OC1C(O)CO (stereo unspecified) | – | 0.00316 µM and 0.00155 µM and 0.00526 µM | < 1e-05 | – | – | – | – | – | – | 0.917 | 0.00334 µM and 0.0102 µM | 0.37 µM and 0.797 µM | – | – | – | – | – | – | 0.005 | 0.0354 µM and 0.0371 µM
Cn1c2c(c3ccccc31)CCN1C(=O)CCC21 (stereo unspecified) | – | > 10 µM | – | > 10 | – | – | – | > 10 | – | > 10 | – | > 10 µM | – | > 10 | – | > 10 | – | > 10 | – | > 10 µM
CN1CCN(C(=O)COc2ccc(/C=C3\CC4C5CC=C6CC(Cl)CCC6(C)C5CCC4(C)C3=O)cc2)CC1 (stereo unspecified) | > 100 | > 100 µM | > 100 | > 100 | 3.08 | > 100 | – | – | > 100 | > 100 | > 100 µM | > 100 µM | – | – | – | – | 3.33 | > 100 | > 100 | > 100 µM
O=C(O)C1[O][Sb][O]C(C(=O)O)C1O (stereo unspecified) | – | – | > 100 | > 100 | > 100 | > 100 | > 100 | > 100 | > 100 | > 100 | > 100 µM | > 100 µM | > 100 | > 100 | – | – | > 100 | > 100 | > 100 | > 100 µM
CCOP(=O)(OCC)C(C(=O)OC)C(=O)C(=O)Nc1cccc(O)c1 (stereo unspecified) | – | > 100 µM | – | > 100 | – | > 100 | – | > 100 | – | > 100 | – | > 100 µM | – | > 100 | – | – | – | > 100 | – | > 100 µM
S=c1ncc2c([nH]1)C1c3ccccc3C2c2ccccc21 | – | > 100 µM | – | > 100 | – | > 100 | – | > 100 | – | – | – | > 100 µM | – | > 100 | – | 70.3 | – | > 100 | – | > 100 µM
O=C1c2ccccc2-c2c1c1ccccc1c(=O)n2CCCNCCn1c2c(c3ccccc3c1=O)C(=O)c1ccccc1-2 | 36.2 | > 100 µM | 2.8 | 10.9 | 1.05 | 3.13 | – | – | 17.8 | 34.6 | 16 µM | 38 µM | 0.0855 | 3.16 | 34.6 | 96.8 | 1.61 | 3.29 | 2.25 | 11.6 µM
Nc1c(Cl)ncnc1NCCCCCCCCCCCCNc1ncnc(Cl)c1N | – | 21.9 µM | – | 57.3 | – | 6.05 | – | 3.88 | – | – | – | 5.22 µM | – | 6.52 | – | 2.12 | – | 4.64 | – | 2.41 µM
CN(/N=C\c1ccnc2ccccc12)c1ccc([N+](=O)[O-])cc1 | – | > 100 µM | – | > 100 | – | > 100 | – | > 100 | – | – | – | > 100 µM | – | > 100 | – | > 100 | – | > 100 | – | > 100 µM
C/C=C1/CC(C)C(C)(O)C(=O)OCC2C(O)CN3CCC(OC1=O)C23 (stereo unspecified) | – | > 100 µM | – | > 100 | – | > 100 | – | > 100 | – | > 100 | – | – | – | > 100 | – | > 100 | – | > 100 | – | > 100 µM
Cc1cc(=O)n(-c2cc3cccccc-3n2)[nH]1 | – | 43.6 µM | – | 19.6 | – | 5.27 | – | 5.32 | – | – | – | > 100 µM | – | > 100 | – | 11.6 | – | 4.96 | – | 47.4 µM
